Results taken from US20240132463A1, “SUBSTITUTED N-(2-(2,6-DIOXOPIPERIDIN-3-YL)-1,3-DIOXOISOINDOLIN-5-YL)ARYLSULFONAMIDE ANALOGS AS MODULATORS OF CEREBLON PROTEIN” (ST. JUDE CHILDREN'S RESEARCH HOSPITAL, INC., priority 2020, published 2024).

Tests used:
6×His-CRBN-DDB1 protein = 6×His-CRBN-DDB1 protein (Homo sapiens (Human), UniProt Q96SW2); test: CRBN fluorescence polarization assay; type: binding; details: cereblon binding, class symbols; read-out: CRBN FP IC50
Description: 6×His-CRBN-DDB1 protein (200 nM) and Cy5-O-Len probe (30 nM) were combined in 20 mM HEPES pH 7, 150 mM NaCl, 0.005% Tween-20 assay buffer. […] The plates were incubated in the dark for 1 hour at room temperature and then read on an Envision plate reader (PerkinElmer, Massachusetts, USA).

GSPT1 HiBiT tag protein = GSPT1 HiBiT tag protein (Homo sapiens (Human), UniProt P15170+Q96SW2); test: hGSPT1 HiBiT assay; type: cell-based; details: HEK293 hGSPT1 HiBiT cells, 4 hrs incubation; read-out: GSPT1 HiBit EC50
Chain of GSPT1 HiBiT tag protein (P15170 whole entry): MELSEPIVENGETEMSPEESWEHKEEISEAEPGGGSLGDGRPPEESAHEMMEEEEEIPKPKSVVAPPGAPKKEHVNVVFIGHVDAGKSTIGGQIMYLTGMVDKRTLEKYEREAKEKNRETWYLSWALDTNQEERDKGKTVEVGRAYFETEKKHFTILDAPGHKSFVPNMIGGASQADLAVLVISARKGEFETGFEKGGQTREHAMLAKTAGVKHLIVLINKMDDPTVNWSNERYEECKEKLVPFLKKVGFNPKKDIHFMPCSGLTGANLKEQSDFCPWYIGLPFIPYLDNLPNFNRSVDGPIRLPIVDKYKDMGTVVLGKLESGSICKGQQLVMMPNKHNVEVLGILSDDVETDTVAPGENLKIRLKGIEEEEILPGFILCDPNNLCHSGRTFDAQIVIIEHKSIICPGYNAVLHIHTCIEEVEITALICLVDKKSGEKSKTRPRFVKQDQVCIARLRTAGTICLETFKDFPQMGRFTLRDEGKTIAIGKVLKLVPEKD
Chain of GSPT1 HiBiT tag protein (Q96SW2 whole entry): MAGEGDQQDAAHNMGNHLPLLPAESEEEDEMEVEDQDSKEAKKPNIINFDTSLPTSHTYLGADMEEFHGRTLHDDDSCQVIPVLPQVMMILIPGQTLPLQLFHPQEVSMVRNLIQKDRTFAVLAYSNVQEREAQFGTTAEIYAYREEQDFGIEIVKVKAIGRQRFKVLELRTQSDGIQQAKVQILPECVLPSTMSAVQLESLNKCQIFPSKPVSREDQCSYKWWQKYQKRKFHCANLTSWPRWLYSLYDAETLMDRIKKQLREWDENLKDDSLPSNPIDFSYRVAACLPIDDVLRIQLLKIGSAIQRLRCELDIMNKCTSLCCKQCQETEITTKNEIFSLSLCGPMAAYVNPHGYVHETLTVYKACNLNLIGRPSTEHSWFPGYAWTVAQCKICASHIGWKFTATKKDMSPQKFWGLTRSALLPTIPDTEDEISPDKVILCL
Chain of GSPT1 HiBiT tag protein (Q16531 whole entry partner): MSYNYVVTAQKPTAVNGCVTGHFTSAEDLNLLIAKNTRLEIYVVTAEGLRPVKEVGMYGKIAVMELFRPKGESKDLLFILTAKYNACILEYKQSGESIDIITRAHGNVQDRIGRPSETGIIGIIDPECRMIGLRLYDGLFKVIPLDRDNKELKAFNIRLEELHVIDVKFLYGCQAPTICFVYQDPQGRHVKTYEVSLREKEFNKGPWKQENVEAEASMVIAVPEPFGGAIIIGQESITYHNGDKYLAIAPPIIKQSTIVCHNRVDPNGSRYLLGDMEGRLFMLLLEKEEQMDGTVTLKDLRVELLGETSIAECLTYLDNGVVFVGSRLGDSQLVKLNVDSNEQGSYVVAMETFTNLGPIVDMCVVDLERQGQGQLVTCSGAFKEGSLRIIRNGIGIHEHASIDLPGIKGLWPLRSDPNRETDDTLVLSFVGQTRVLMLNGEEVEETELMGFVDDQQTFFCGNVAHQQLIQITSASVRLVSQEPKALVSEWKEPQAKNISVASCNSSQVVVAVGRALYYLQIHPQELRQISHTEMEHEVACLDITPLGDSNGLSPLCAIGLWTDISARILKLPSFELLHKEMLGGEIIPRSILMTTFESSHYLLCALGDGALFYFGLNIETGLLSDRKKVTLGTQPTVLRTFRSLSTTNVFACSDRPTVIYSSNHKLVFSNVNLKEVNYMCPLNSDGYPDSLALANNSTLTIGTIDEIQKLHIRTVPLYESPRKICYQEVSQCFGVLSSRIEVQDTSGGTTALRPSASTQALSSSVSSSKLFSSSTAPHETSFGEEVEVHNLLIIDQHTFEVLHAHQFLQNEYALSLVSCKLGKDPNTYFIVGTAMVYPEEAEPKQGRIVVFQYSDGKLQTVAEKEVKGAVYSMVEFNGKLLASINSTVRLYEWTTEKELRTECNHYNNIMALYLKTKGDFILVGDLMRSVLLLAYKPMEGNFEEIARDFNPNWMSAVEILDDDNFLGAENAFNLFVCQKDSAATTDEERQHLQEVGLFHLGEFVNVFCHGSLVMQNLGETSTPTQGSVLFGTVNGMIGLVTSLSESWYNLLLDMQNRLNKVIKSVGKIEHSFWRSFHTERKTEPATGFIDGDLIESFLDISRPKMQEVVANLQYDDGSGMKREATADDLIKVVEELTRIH
Description: hGSPT1 HiBiT cell line. HEK293_hGSPT1_HiBiT tagged cells were generated using CRISPR-Cas12a technology. Briefly, ˜400,000 HEK293 cells were transiently co-transfecting with precomplexed ribonuclear proteins (RNPs) consisting of […] of crRNA (IDT), 62 pmol of Cas12a protein (IDT), 3 ug of ssODN donor (IDT; AltR™ modifications), 78 pmol of electroporation enhancer (IDT), and 200 ng of pMaxGFP (Lonza). The transfection was performed via nucleofection (Lonza, 4D-Nucleofector™ X-unit) using solution P3 and program CM-130 in a small (20 ul) cuvette according to the manufacturer's recommended protocol. Five days post-nucleofection, cells were single cell sorted for GFP+(transfected) cells by FACs in 96-well plates and clonally selected. Clones were screened and verified for the desired modification via targeted deep sequencing using gene specific primers with partial Illumina adapter overhangs as previously described.^58 In brief, clonal cell pellets were harvested, lysed and used to generate gene specific amplicons with partial Illumina adapters in PCR #1. Amplicons were indexed in PCR #2 and pooled with other targeted amplicons for other loci to create sequence diversity. Additionally, 10% PhiX Sequencing Control V3 (Illumina) was added to the pooled amplicon library prior to running the sample on an Miseq Sequencer System (Illumina) to generate paired 2×250 bp reads. […] Editing construct sequences and screening primers are listed below in Table 4.
hGSPT1 HiBiT assay. […] After 4 hrs incubation, the level of GSPT1 HiBiT tag protein was evaluated using Nano-Glo® HiBiT Lytic Detection System (Promega) according to the manufacturer's instruction.

Chain of 6×His-CRBN-DDB1 protein (Q96SW2 whole entry): as the sequence (Q96SW2 whole entry) above
Chain of 6×His-CRBN-DDB1 protein (Q16531 whole entry partner): as the sequence (Q16531 whole entry partner) above

| IC50 (6×His-CRBN-DDB1 protein) [nM] | DC50 (GSPT1 HiBiT tag protein) [nM] | Structure (SMILES) |
| --- | --- | --- |
| < 1000 | > 10000 | O=C1CCC(N2C(=O)c3ccc(NS(=O)(=O)c4ccc(F)cc4)cc3C2=O)C(=O)N1 (centres unmarked) [Compound 12, N-(2-(2,6-dioxopiperidin-3-yl)-1,3-dioxoisoindolin-5-yl)-4-fluorobenzenesulfonamide] |
| – | > 10000 | O=C1CCC(N2C(=O)c3ccc(NS(=O)(=O)c4ccc(C(F)(F)F)cc4)cc3C2=O)C(=O)N1 (centres unmarked) [Compound 8, N-(2-(2,6-dioxopiperidin-3-yl)-1,3-dioxoisoindolin-5-yl)-4-(trifluoromethyl)benzenesulfonamide] |
| 1000 to 10000 | > 10000 | Cc1ccc(S(=O)(=O)Nc2ccc3c(c2)C(=O)N(C2CCC(=O)NC2=O)C3=O)cc1 (centres unmarked) [Compound 21, N-(2-(2,6-dioxopiperidin-3-yl)-1,3-dioxoisoindolin-5-yl)-4-methylbenzenesulfonamide] |
| 1000 to 10000 | > 10000 | Cc1ccccc1CS(=O)(=O)Nc1ccc2c(c1)C(=O)N(C1CCC(=O)NC1=O)C2=O (centres unmarked) [Compound 90, N-(2-(2,6-dioxopiperidin-3-yl)-1,3-dioxoisoindolin-5-yl)-1-(o-tolyt)methanesulfonamide] |
| < 1000 | > 10000 | Cc1ccc(F)c(S(=O)(=O)Nc2ccc3c(c2)C(=O)N(C2CCC(=O)NC2=O)C3=O)c1 (centres unmarked) [Compound 10, N-(2-(2,6-dioxopiperidin-3-yl)-1,3-dioxoisoindolin-5-yl)-2-fluoro-5-methylbenzenesulfonamide] |
| < 1000 | > 10000 | O=C1CCC(N2C(=O)c3ccc(NS(=O)(=O)c4ccccc4F)cc3C2=O)C(=O)N1 (centres unmarked) [Compound 82, N-(2-(2,6-dioxopiperidin-3-yl)-1,3-dioxoisoindolin-5-yl)-2-fluorobenzenesulfonamide] |
| < 1000 | > 10000 | O=C1CCC(N2C(=O)c3ccc(NS(=O)(=O)c4ccc(Cl)cc4)cc3C2=O)C(=O)N1 (centres unmarked) [Compound 16, 4-chloro-N-(2-(2,6-dioxopiperidin-3-yl)-1,3-dioxoisoindolin-5-yl)benzenesulfonamide] |
| < 1000 | > 10000 | O=C1CCC(N2C(=O)c3ccc(NS(=O)(=O)Cc4ccc(F)cc4)cc3C2=O)C(=O)N1 (centres unmarked) [Compound 89, N-(2-(2,6-dioxopiperidin-3-yl)-1,3-dioxoisoindolin-5-yl)-1-(4-fluorophenyl)methanesulfonamide] |
| < 1000 | < 1000 | Cc1cc(S(=O)(=O)Nc2ccc3c(c2)C(=O)N(C2CCC(=O)NC2=O)C3=O)c(C)cc1Cl (centres unmarked) [Compound 77, 4-chloro-N-(2-(2,6-dioxopiperidin-3-yl)-1,3-dioxoisoindolin-5-yl)-2,5-dimethylbenzenesulfonamide] |
| < 1000 | > 10000 | O=C1CCC(N2C(=O)c3ccc(NS(=O)(=O)c4ccccc4-c4ccccc4)cc3C2=O)C(=O)N1 (centres unmarked) [Compound 81, N-(2-(2,6-dioxopiperidin-3-yl)-1,3-dioxoisoindolin-5-yl)-[1,1′-biphenyl]-2-sulfonamide] |
| < 1000 | > 10000 | O=C1CCC(N2C(=O)c3ccc(NS(=O)(=O)c4cccc(F)c4)cc3C2=O)C(=O)N1 (centres unmarked) [Compound 72, N-(2-(2,6-dioxopiperidin-3-yl)-1,3-dioxoisoindolin-5-yl)-3-fluorobenzenesulfonamide] |
| 1000 to 10000 | – | COc1ccc(S(=O)(=O)Nc2ccc3c(c2)C(=O)N(C2CCC(=O)NC2=O)C3)cc1 (centres unmarked) [Compound 24, N-(2-(2,6-dioxopiperidin-3-yl)-3-oxoisoindolin-5-yl)-4-methoxybenzenesulfonamide] |
| < 1000 | – | O=C1CCC(N2C(=O)c3ccc(NS(=O)(=O)Cc4ccc(Cl)cc4)cc3C2=O)C(=O)N1 (centres unmarked) [Compound 57, 1-(4-chlorophenyl)-N-(2-(2,6-dioxopiperidin-3-yl)-1,3-dioxoisoindolin-5-yi)methanesulfonamide] |
| < 1000 | – | Cc1cc(C)c(S(=O)(=O)Nc2ccc3c(c2)C(=O)N(C2CCC(=O)NC2=O)C3=O)c(C)c1 (centres unmarked) [Compound 68, N-(2-(2,6-dioxopiperidin-3-yl)-1,3-dioxoisoindolin-5-yl)-2,4,6-trimethylbenzenesulfonamide] |
| < 1000 | – | Cc1ccccc1S(=O)(=O)Nc1ccc2c(c1)CN(C1CCC(=O)NC1=O)C2=O (centres unmarked) [Compound 54, N-(2-(2,6-dioxopiperidin-3-yl)-1-oxoisoindolin-5-yl)-2-methylbenzenesulfonamide] |
| 1000 to 10000 | – | O=C1CCC(N2C(=O)c3ccc(NS(=O)(=O)c4cccnc4)cc3C2=O)C(=O)N1 (centres unmarked) [Compound 85, N-(2-(2,6-dioxopiperidin-3-yl)-1,3-dioxoisoindolin-5-yl)pyridine-3-sulfonamide] |
| < 1000 | – | CC(C)(C)c1ccc(S(=O)(=O)Nc2ccc3c(c2)C(=O)N(C2CCC(=O)NC2=O)C3=O)cc1 (centres unmarked) [Compound 3, 4-(tert-butyl)-N-(2-(2,6-dioxopiperidin-3-yl)-1,3-dioxoisoindolin-5-yl)benzenesulfonamide] |
| < 1000 | – | Cc1c(Cl)cccc1S(=O)(=O)Nc1ccc2c(c1)C(=O)N(C1CCC(=O)NC1=O)C2 (centres unmarked) [Compound 36, 3-chloro-N-(2-(2,6-dioxopiperidin-3-yl)-3-oxoisoindolin-5-yl)-2-methylbenzenesulfonamide] |
| < 1000 | – | O=C1CCC(N2Cc3ccc(NS(=O)(=O)c4ccccc4)cc3C2=O)C(=O)N1 (centres unmarked) [Compound 22, N-(2-(2,6-dioxopiperidin-3-yl)-3-oxoisoindolin-5-yl)benzenesulfonamide] |
| < 1000 | – | O=C1CCC(N2C(=O)c3ccc(NS(=O)(=O)c4ccco4)cc3C2=O)C(=O)N1 (centres unmarked) [Compound 91, N-(2-(2,6-dioxopiperidin-3-yl)-1,3-dioxoisoindolin-5-yl)furan-2-sulfonamide] |
| 1000 to 10000 | – | O=C1CCC(N2C(=O)c3ccc(NS(=O)(=O)c4ccc(C5CCCCC5)cc4)cc3C2=O)C(=O)N1 (centres unmarked) [Compound 80, 4-cyclohexyl-N-(2-(2,6-dioxopiperidin-3-yl)-1,3-dioxoisoindolin-5-yl)benzenesulfonamide] |
| 1000 to 10000 | – | O=C1CCC(N2Cc3ccc(NS(=O)(=O)c4ccc(F)c(Cl)c4)cc3C2=O)C(=O)N1 (centres unmarked) [Compound 31, 3-chloro-N-(2-(2,6-dioxopiperidin-3-yl)-3-oxoisoindolin-5-yl)-4-fluorobenzenesulfonamide] |
| < 1000 | – | O=C1CCC(N2Cc3cc(NS(=O)(=O)c4cccc(OC(F)(F)F)c4)ccc3C2=O)C(=O)N1 (centres unmarked) [Compound 43, N-(2-(2,6-dioxopiperidin-3-yl)-1-oxoisoindolin-5-yl)-3-(trifluoromethoxy)benzenesulfonamide] |
| < 1000 | – | O=C1CCC(N2C(=O)c3ccc(NS(=O)(=O)c4cc(Cl)cc(Cl)c4)cc3C2=O)C(=O)N1 (centres unmarked) [Compound 6, 3,5-dichloro-N-(2-(2,6-dioxopiperidin-3-yl)-1,3-dioxoisoindolin-5-yl)benzenesulfonamide] |
| 1000 to 10000 | – | CCOc1ccccc1S(=O)(=O)Nc1ccc2c(c1)C(=O)N(C1CCC(=O)NC1=O)C2=O (centres unmarked) [Compound 79, N-(2-(2,6-dioxopiperidin-3-yl)-1,3-dioxoisoindolin-5-yl)-2-ethoxybenzenesulfonamide] |
| < 1000 | – | Cc1c(Cl)cccc1S(=O)(=O)Nc1ccc2c(c1)CN(C1CCC(=O)NC1=O)C2=O (centres unmarked) [Compound 55, 3-chloro-N-(2-(2,6-dioxopiperidin-3-yl)-1-oxoisoindolin-5-yl)-2-methylbenzenesulfonamide] |
| – | > 10000 | O=C1CCC(N2C(=O)c3ccc(NS(=O)(=O)c4ccc(Cl)c(C(F)(F)F)c4)cc3C2=O)C(=O)N1 (centres unmarked) [Compound 70, 4-chloro-N-(2-(2,6-dioxopiperidin-3-yl)-1,3-dioxoisoindolin-5-yl)-3-(trifluoromethyl)benzenesulfonamide] |
| 1000 to 10000 | – | O=C1CCC(N2Cc3cc(NS(=O)(=O)c4ccccc4)ccc3C2=O)C(=O)N1 (centres unmarked) [Compound 38, N-(2-(2,6-dioxopiperidin-3-yl)-1-oxoisoindolin-5-yl)benzenesulfonamide] |

| Structure (SMILES) | IC50 (6×His-CRBN-DDB1 protein) [nM] | DC50 (GSPT1 HiBiT tag protein) [nM] |
| --- | --- | --- |
| O=C1CCC(N2C(=O)c3ccc(NS(=O)(=O)c4ccc(OC(F)(F)F)cc4)cc3C2=O)C(=O)N1 (centres unmarked) [Compound 96] | < 1000 | > 10000 |
| O=C1CCC(N2C(=O)c3ccc(NS(=O)(=O)c4cccc(Cl)c4)cc3C2=O)C(=O)N1 (centres unmarked) [Compound 95, 3-chloro-N-(2-(2,6-dioxopiperidin-3-yl)-1,3-dioxoisoindolin-5-yl)benzenesulfonamide] | < 1000 | > 10000 |
| COc1ccccc1S(=O)(=O)Nc1ccc2c(c1)C(=O)N(C1CCC(=O)NC1=O)C2=O (centres unmarked) [Compound 100, N-(2-(2,6-dioxopiperidin-3-yl)-1,3-dioxoisoindolin-5-yl)-2-methoxybenzenesulfonamide] | < 1000 | > 10000 |
